Experimental data from paper PMC10952255, “Solid‐Phase Synthesis and Biological Evaluation of Peptides ADP‐Ribosylated at Histidine” (Angewandte Chemie (Weinheim an Der Bergstrasse, Germany), 2023).
Starred links: 1 amine or outer side, 2 acyl side, 3 side chain; linkers in the order of their positions; H or OH if unused. Non-standard residues stand in square brackets, D forms with d. Residues, ends and D or L forms follow the SMILES beside them. X1 = Nc1ncnc2c1ncn2[C@@H]1O[C@H](COP(=O)(O)OP(=O)(O)OC[C@H]2O[C@H](n3cncc3C[C@H](N[*:1])C(=O)[*:2])[C@H](O)[C@@H]2O)[C@@H](O)[C@H]1O

Experiments:
[1] = Chemical stability assay (LC-MS based) under acidic, basic and nucleophilic conditions; assay type: physicochemical
From the text: Having prepared ADPr‐His peptides 26–28, we tested their stability under basic and acidic conditions in an LC–MS‐based assay to evaluate their sensitivity for future synthetic and biochemical studies. A selected set of chemically diverse conditions (aqueous acid, aqueous base and a neutral nucleophile) was probed because these are commonly applied in proteomic studies to identify ADP‐ribosylation sites[22] in proteins or during sample preparation.[14, 28] Aqueous solutions of the ADPr peptides with a final concentration of 0.1 M TFA, 0.1 M NaOH or 0.5 M NH2OH were prepared and shaken for 24 h at room temperature. […] In contrast, the NaOH treatment led to some conversion of the N(τ)‐ribosylated histidines 26 and 27 into products with an identical mass (approximately 7 and 11 %, respectively), indicating a slow epimerization of the modified histidine residue in N(τ)‐ribosyl peptides. […]
Figure 5 A) Chemical stability of peptide 28 under basic conditions (NaOH, 0.1 M). […] Peptide degradation was quantified by analyzing the UV‐trace (260 nm) using Xcalibur software. […] Enzymatic turnover of the various peptides was assessed by monitoring AMP release directly (NudT16) or converting released ADPr via NudT5 to AMP. AMP was measured using the AMP‐Glo assay (Promega). Samples are background corrected and normalized to NudT16 activity The data represents mean values±SD measured in triplicates. […]

[2] = quoted without reference; cited from earlier work

| Structure (SMILES) | ADPr-peptide remaining in its original form ([1]; 0.1 M NaOH, after 24 h, LC-MS UV-trace 260 nm) | degradation of the pyrophosphate linkage ([1]; alkaline treatment (0.1 M NaOH), after a week, LC-MS) | pKa [2] |
| --- | --- | --- | --- |
| CC(C)C[C@H](NC(=O)CNC(=O)[C@H](C)NC(=O)CNC(=O)[C@H](Cc1cncn1[C@H]1O[C@H](COP(=O)(O)OP(=O)(O)OC[C@H]2O[C@@H](n3cnc4c(N)ncnc43)[C@H](O)[C@@H]2O)[C@@H](O)[C@H]1O)NC(=O)[C@H](Cc1ccccc1)NC(=O)[C@@H](N)[C@@H](C)O)C(=O)N[C@H](C(=O)N[C@H](C(=O)N1CCC[C@H]1C(=O)N[C@H](C(=O)N[C@@H](CC(=O)O)C(=O)N[C@@H](CCCCN)C(=O)O)C(C)C)C(C)C)C(C)C [compound 28] (H-TF[X1]GAGLVVPVDK-OH) | approximately 60% | no degradation of the pyrophosphate linkage was observed |  |
| c1c[nH]nn1 [1,2,3‐triazole] |  |  | 9.4 |
